What was measured:
[1] = system: TNF; assay: TNF IC50 (column of Table 1; method not in the text shown); assay type: cell-based
[2] = target: T1, SIRT1 (Homo sapiens, UniProt Q96EB6); assay: Mass spectrometry based assay to identify modulators of SIRT1 activity (deacetylation of p53-based acetylated peptide substrate); assay type: biochemical; conditions: for Emax: 25 min, read-out: % FOLD ACT. (percent maximum fold activation); for Emax / EC1.5: SIRT1 activation
T1 sequence (Q96EB6 1-747): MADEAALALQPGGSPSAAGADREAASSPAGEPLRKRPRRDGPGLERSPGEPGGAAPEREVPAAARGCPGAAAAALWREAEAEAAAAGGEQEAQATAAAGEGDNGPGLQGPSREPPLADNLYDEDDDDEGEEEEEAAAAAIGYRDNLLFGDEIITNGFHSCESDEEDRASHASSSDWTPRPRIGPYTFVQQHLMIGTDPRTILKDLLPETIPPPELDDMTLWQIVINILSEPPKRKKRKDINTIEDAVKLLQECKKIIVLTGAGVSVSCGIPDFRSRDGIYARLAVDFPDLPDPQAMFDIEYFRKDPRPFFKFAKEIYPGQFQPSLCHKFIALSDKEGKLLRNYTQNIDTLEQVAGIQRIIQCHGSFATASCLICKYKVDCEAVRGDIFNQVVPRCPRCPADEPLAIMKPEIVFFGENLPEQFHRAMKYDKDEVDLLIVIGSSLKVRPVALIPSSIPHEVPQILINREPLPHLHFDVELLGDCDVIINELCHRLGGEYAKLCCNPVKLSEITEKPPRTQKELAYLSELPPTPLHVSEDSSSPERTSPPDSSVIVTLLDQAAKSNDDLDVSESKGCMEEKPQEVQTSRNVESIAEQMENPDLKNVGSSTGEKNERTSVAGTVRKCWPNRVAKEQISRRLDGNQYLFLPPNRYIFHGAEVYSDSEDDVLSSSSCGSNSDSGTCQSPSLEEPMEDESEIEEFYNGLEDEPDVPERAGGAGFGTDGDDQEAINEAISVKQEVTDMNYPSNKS
How it was run: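 His-tagged human SIRT1 (10 nM, E. coli) incubated 25 min at 25 °C with […] p53-derived acetylated 5TMR peptide and 120 μM βNAD+ in pH 8 Tris-acetate buffer, then formic acid-stopped. Mass spectrometry quantifies acetylated vs deacetylated peptide; nicotinamide and DMSO controls.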

[3] = system: TNF; assay: TNF IC50 (column of Table 1; method not shown); assay type: cell-based

SMILES | IC50 [1] [µM] | EC1.5 (concentration giving 1.5-fold activation) [2] [nM] | Emax [2] [%] | EC1.5 [2] | IC50 [3] [µM]
COc1cc(NC(=O)N2CCCOc3ccc(-c4cccc(Cl)c4)nc32)nc(OC)n1 [Compound 873] | ≥ 20 | < 1000 | > 200 | – | –
O=C(Nc1ccnc(N2CCC2)c1)N1CCOc2cnc(-c3cccc(C(F)(F)F)c3)nc21 [Compound 713] | ≥ 20 | < 1000 | > 200 | – | –
Cc1cncc(NC(=O)N2CC(C)(C)Oc3ccc(-c4cccc(N5CC[C@@H](F)C5)c4)nc32)c1 [Compound 701, (R)-6-(3-(3-fluoropyrrolidin-1-yl)phenyl)-2,2-dimethyl-N-(5-methylpyridin-3-yl)-2H-pyrido[3,2-b][1,4]oxazine-4(3H)-carboxamide] | < 20 | < 1000 | > 200 | – | –
Cc1cncc(NC(=O)N2CCOc3cnc(-c4cccc(C(F)(F)F)c4)nc32)c1 [Compound 710] | ≥ 20 | < 1000 | > 200 | – | –
O=C(Nc1cccc(N2CC3(CCO3)C2)n1)N1CCOc2ccc(-c3cccc(C(F)(F)F)c3)nc21 [Compound 823, N-(6-(1-oxa-6-azaspiro[3.3]heptan-6-yl)pyridin-2-yl)-6-(3-(trifluoromethyl)phenyl)-2H-pyrido[3,2-b][1,4]oxazine-4(3H)-carboxamide] | ≥ 20 | < 1000 | > 200 | – | –
O=C(Nc1ccc2nccn2c1)N1CCCOc2ccc(-c3cccc(Cl)c3)nc21 [Compound 880] | < 20 | < 1000 | > 200 | – | –
O=C(Nc1cccc(OCC(O)CO)n1)N1CCOc2cnc(-c3cccc(C(F)(F)F)c3)nc21 (stereo not drawn) [Compound 717] | ≥ 20 | < 1000 | ≤ 200 | – | –
CC1CCN(C(=O)Nc2ccncc2)c2nc(-c3cccc(C(F)(F)F)c3)ccc21 (stereo not drawn) [Compound 786, 4-methyl-N-(pyridin-4-yl)-7-(3-(trifluoromethyl)phenyl)-3,4-dihydro-1,8-naphthyridine-1(2H)-carboxamide] | < 20 | < 1000 | > 200 | – | –
O=C(Nc1ccnc(OCC(O)CO)n1)N1CCCOc2ccc(-c3cccc(Cl)c3)nc21 (stereo not drawn) [Compound 876] | < 20 | < 1000 | > 200 | – | –
O=C(Nc1cccc(N2CC3(COC3)C2)n1)N1CCc2ccc(-c3cccc(C(F)(F)F)c3)nc21 [Compound 877] | < 20 | < 1000 | > 200 | – | –
CN(C)c1cccc(-c2ccc3c(n2)N(C(=O)Nc2cccc(OC[C@H](O)CO)n2)CCC3)c1 [Compound 699] | < 20 | < 1000 | > 200 | – | –
CC1(C)CCN(C(=O)Nc2cncc(OCC(O)CO)n2)c2nc(-c3cccc(C(F)(F)F)c3)ccc21 (stereo not drawn) [Compound 848] | < 20 | < 1000 | > 200 | – | –
O=C(Nc1ccnc(OC[C@H](O)CO)n1)N1CCC(F)(F)c2ccc(-c3cccc(C(F)(F)F)c3)nc21 [Compound 825] | < 20 | < 1000 | > 200 | – | –
O=C(Nc1ccc2nccnc2c1)N1CCCOc2ccc(-c3cccc(Cl)c3)nc21 [Compound 881] | ≥ 20 | < 1000 | > 200 | – | –
O=C(Nc1cncc(OCC(O)CO)n1)N1CCc2ccc(-c3cccc(C(F)(F)F)c3)nc21 (stereo not drawn) [Compound 868] | < 20 | < 1000 | > 200 | – | –
CC1(C)CCN(C(=O)Nc2cccc(OC[C@@H](O)CO)n2)c2nc(-c3cccc(C(F)(F)F)c3)ccc21 [Compound 840] | < 20 | < 1000 | > 200 | – | –
CC1CCN(C(=O)Nc2ccc(F)cn2)c2nc(-c3cccc(C(F)(F)F)c3)ccc21 (stereo not drawn) [Compound 800] | < 20 | < 1000 | ≤ 200 | – | –
O=C(Nc1cccc(OC[C@@H](O)CO)n1)N1CCC(F)(F)c2ccc(-c3cccc(C(F)(F)F)c3)nc21 [Compound 745] | < 20 | < 1000 | > 200 | – | –
Cc1cc(NC(=O)N2CCCC(=O)c3ccc(-c4cccc(Cl)c4)nc32)ccn1 [Compound 750] | ≥ 20 | < 1000 | > 200 | – | –
Cn1cc2ccc(NC(=O)N3CCCOc4ccc(-c5cccc(Cl)c5)nc43)cc2n1 [Compound 883] | < 20 | < 1000 | > 200 | – | –

SMILES | IC50 [1] [µM] | EC1.5 (concentration giving 1.5-fold activation) [2] [nM] | Emax [2] [%] | EC1.5 [2] | IC50 [3] [µM]
CCN1CCCN(C(=O)Nc2nc(C)cs2)c2nc(-c3cccc(Cl)c3)ccc21 [Compound 794] | < 20 | < 1000 | > 200 | – | –
N#Cc1cccc(-c2ccc3c(n2)N(C(=O)Nc2cccc(OC[C@H](O)CO)n2)CCC3)c1 [Compound 700] | < 20 | < 1000 | > 200 | – | –
O=C(Nc1cccc(N2CC3(CCO3)C2)n1)N1CCc2ccc(-c3cccc(C(F)(F)F)c3)nc21 [Compound 869] | < 20 | < 1000 | > 200 | – | –
COc1cc(NC(=O)N2CCCOc3ccc(-c4cccc(Cl)c4)nc32)ccn1 [Compound 882] | ≥ 20 | < 1000 | > 200 | – | –
CC1(C)CCN(C(=O)Nc2ccncn2)c2nc(-c3cccc(C(F)(F)F)c3)ccc21 [Compound 838] | ≥ 20 | < 1000 | > 200 | – | –
CC1CCN(C(=O)Nc2ccncn2)c2nc(-c3cccc(C(F)(F)F)c3)ccc21 (stereo not drawn) [Compound 805] | < 20 | < 1000 | > 200 | – | –
CCN1CCCN(C(=O)Nc2cc(C)nc(C)c2)c2nc(-c3cccc(Cl)c3)ccc21 [Compound 793] | < 20 | < 1000 | > 200 | – | –
CC1CCN(C(=O)Nc2ccncc2F)c2nc(-c3cccc(C(F)(F)F)c3)ccc21 (stereo not drawn) [Compound 804] | < 20 | < 1000 | > 200 | – | –
O=C(Nc1ccccn1)N1CCc2ccc(-c3cccc(C(F)(F)F)c3)nc21 [Compound 861, N-(pyridin-2-yl)-6-(3-(trifluoromethyl)phenyl)-2,3-dihydro-1H-pyrrolo[2,3-b]pyridine-1-carboxamide] | ≥ 20 | < 1000 | > 200 | – | –
O=C(Nc1ccncc1)N1CCc2ccc(-c3cccc(C(F)(F)F)c3)nc21 [Compound 849] | < 20 | < 1000 | > 200 | – | –
Cc1csc(NC(=O)N2CC(C)(C)Oc3ccc(-c4cccc(N5CC[C@@H](F)C5)c4)nc32)n1 [Compound 707] | ≥ 20 | < 1000 | > 200 | – | –
CC1CCN(C(=O)Nc2cccc(OC[C@@H](O)CO)n2)c2nc(-c3cccc(C(F)(F)F)c3)ccc21 (stereo partly drawn) [Compound 801] | < 20 | < 1000 | > 200 | – | –
O=C(Nc1ccnc(OCC(O)CO)n1)N1CCOc2ccc(-c3cccc(C(F)(F)F)c3)nc21 (stereo not drawn) [Compound 697] | ≥ 20 | < 1000 | > 200 | – | –
O=C(Nc1cncc(OCC(O)CO)n1)N1CCC(F)(F)c2ccc(-c3cccc(C(F)(F)F)c3)nc21 (stereo not drawn) [Compound 813] | < 20 | < 1000 | > 200 | – | –
O=C(Nc1ccnc(OC[C@H](O)CO)c1)N1CCCOc2ccc(-c3cccc(Cl)c3)nc21 [Compound 864] | < 20 | 1000 to 25000 | > 200 | – | –
O=C(Nc1cccc(OC[C@H](O)CO)n1)N1CCOc2ccc(-c3ccc4c(c3)CCO4)nc21 [Compound 695] | – | – | > 200 | A (EC1.5<1.0 μM) | < 20
Cc1cc(-c2cccc(Cl)c2)nc2c1OCCN2C(=O)Nc1ccnc(N2CCC2)c1 [Compound 692] | – | – | > 200 | A (EC1.5<1.0 μM) | ≥ 20
Cc1cc(C)nc(NC(=O)N2CCOc3c(C)cc(-c4cccc(Cl)c4)nc32)c1 [Compound 690] | – | – | > 200 | A (EC1.5<1.0 μM) | ≥ 20
O=C(Nc1ccnc(N2CCC2)c1)N1CCOc2ccc(-c3cccc(C(F)(F)F)c3)nc21 [Compound 513] | – | – | > 200 | A (EC1.5<1.0 μM) | ≥ 20
O=C(Nc1ccnc(N2CCC2)c1)N1CCOc2ccc(-c3cccc(F)c3)nc21 [Compound 519] | – | – | > 200 | A (EC1.5<1.0 μM) | < 20

From patent US9556201B2, “Bicyclic pyridines and analogs as sirtuin modulators” (GLAXOSMITHKLINE LLC, priority 2009, dated 2017)
